These results are taken from PubChem BioAssay (NCI).

Test systems include DMS 273 small cell lung; MALME-3M melanoma; XF 498 CNS; OVCAR-5 ovarian; RPMI-8226 leukemia; M14 melanoma; CAKI-1 renal; HOP-92 NSCLC; TK-10 renal; A549 NSCLC; ACHN renal.
What all share (test): NCI anticancer screen, dose series, 48 h

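Test compounds were applied to cells in 96-well plates for 48 hours at 5 doses. Abbreviation: GI50, concentration required for 50% inhibition of growth. The concentration for full growth arrest is given as TGI.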

For the molecule `Cc1cc2c(C(C)C)c(O)c(O)c(C=Nc3ccccc3)c2c(O)c1-c1c(C)cc2c(C(C)C)c(O)c(O)c(C=Nc3ccccc3)c2c1O`, the TGI with DMS 273 small cell lung, in the assay on MALME-3M melanoma, with XF 498 CNS, with OVCAR-5 ovarian, in the assay with RPMI-8226 leukemia and in the assay on M14 melanoma was above 100 µM throughout. The TGI with CAKI-1 renal, in the assay on HOP-92 NSCLC, in the assay with TK-10 renal, in the assay with A549 NSCLC and in the assay on ACHN renal was above 100 µM in each case.
As to `CC1=C/C(=C2/N=C(N(C)C)SS2)C(C)=N1`, the TGI in the assay with DMS 273 small cell lung, with MALME-3M melanoma, with XF 498 CNS, in the assay with OVCAR-5 ovarian, in the assay with RPMI-8226 leukemia and in the assay with M14 melanoma was above 100 µM in each case. In addition, the TGI with CAKI-1 renal, in the assay with HOP-92 NSCLC, with TK-10 renal, in the assay with A549 NSCLC and with ACHN renal was above 100 µM throughout.
With `CCCCS(=O)CC(CO)NC(=O)/C=C/c1c(C)[nH]c(=O)[nH]c1=O` (stereo not given), the TGI with DMS 273 small cell lung is 52.7 µM; with MALME-3M melanoma, 14.6 µM; in the assay on XF 498 CNS it was 14 µM; in the assay on OVCAR-5 ovarian, 89.8 µM; with RPMI-8226 leukemia, 59.2 µM; in the assay with CAKI-1 renal, 114 µM. In addition, the TGI with HOP-92 NSCLC worked out at 101 µM; in the assay with A549 NSCLC, 87.1 µM.
Regarding `C[C@]12CCc3sc(-c4cccc(F)c4)nc3C1=CC[C@@H]1[C@@H]2CC[C@]2(C)C(=O)CC[C@@H]12`, the GI50 in the assay on MALME-3M melanoma was 1.8 µM; in the assay with OVCAR-5 ovarian, 2.68 µM; with RPMI-8226 leukemia, 1.91 µM; with M14 melanoma it was 6.62 µM; with CAKI-1 renal it was 1.87 µM; with HOP-92 NSCLC it was 2.44 µM. For the same molecule, the figures for the GI50 in the assay with TK-10 renal, in the assay on A549 NSCLC and in the assay with ACHN renal were 2.77 µM, 3.95 µM and 1.64 µM, respectively. Further, the TGI was 4.13 µM with MALME-3M melanoma; 18.5 µM with OVCAR-5 ovarian; 5.65 µM in the assay with RPMI-8226 leukemia; above 100 µM in the assay on M14 melanoma; 3.76 µM in the assay on CAKI-1 renal; 5.63 µM in the assay with HOP-92 NSCLC. The values for the TGI in the assay with TK-10 renal, in the assay with A549 NSCLC and with ACHN renal were 8.29 µM, 31.5 µM and 3.01 µM, respectively.
As to `O=C1CCCN1CCCN=c1cc2n(-c3ccc(Cl)cc3)c3ccccc3nc-2cc1Nc1ccc(Cl)cc1`, the TGI was 43.6 µM with DMS 273 small cell lung; 38.3 µM with MALME-3M melanoma; 35.3 µM with XF 498 CNS; 37.3 µM with OVCAR-5 ovarian; 28.1 µM in the assay on RPMI-8226 leukemia; above 100 µM in the assay on CAKI-1 renal. For the same molecule, the TGI with HOP-92 NSCLC is 40.6 µM; in the assay on A549 NSCLC, 35.3 µM.
In the case of `O=c1c2c3c(sc2nc2n1N=C(c1ccc([N+](=O)[O-])cc1)CS2)CCCC3`, the TGI in the assay with MALME-3M melanoma, with OVCAR-5 ovarian, with RPMI-8226 leukemia, with CAKI-1 renal, with HOP-92 NSCLC and with TK-10 renal was above 100 µM throughout. In addition, the TGI in the assay on A549 NSCLC and in the assay on ACHN renal was above 100 µM in each case.
For the molecule `Cn1c(=O)c2nc(NCCO)cnc2n(C)c1=O`, the TGI with DMS 273 small cell lung, in the assay on MALME-3M melanoma, in the assay on XF 498 CNS, in the assay on OVCAR-5 ovarian, in the assay with RPMI-8226 leukemia and in the assay on M14 melanoma was above 100 µM in each case. Also, the TGI in the assay with CAKI-1 renal, with HOP-92 NSCLC, in the assay with TK-10 renal, with A549 NSCLC and with ACHN renal was above 100 µM each time.
Regarding `O=C(c1ccccc1)c1nn(-c2ccccc2)c2nc3nc(-c4ccccc4)cc(=O)n3nc12`, the GI50 is 0.0477 µM in the assay on MALME-3M melanoma; 21.4 µM in the assay with RPMI-8226 leukemia; 27.3 µM with M14 melanoma; 68 µM in the assay on CAKI-1 renal; 24.6 µM in the assay with HOP-92 NSCLC; 40.3 µM with TK-10 renal. For the same molecule, the results for the GI50 in the assay with A549 NSCLC and in the assay on ACHN renal were 26.5 µM and 37.1 µM, respectively. Besides, the TGI with MALME-3M melanoma is 34.6 µM; in the assay with RPMI-8226 leukemia, 50.8 µM; in the assay on M14 melanoma it was 81.4 µM; with CAKI-1 renal, above 100 µM; in the assay on HOP-92 NSCLC it was 78.3 µM; in the assay with TK-10 renal, above 100 µM. The TGI with A549 NSCLC was 81.4 µM; in the assay on ACHN renal, above 100 µM.
Turning to `CCc1c(C)c2ccc(OCC(=O)N=Nc3c(O)[nH]c4ccccc34)c(C)c2oc1=O`, the GI50 is above 33.3 µM in the assay on OVCAR-5 ovarian; 0.936 µM in the assay with RPMI-8226 leukemia; above 33.3 µM with CAKI-1 renal; 0.69 µM in the assay on HOP-92 NSCLC; above 33.3 µM with TK-10 renal; above 33.3 µM in the assay with A549 NSCLC. For the same molecule, the GI50 in the assay with ACHN renal was above 33.3 µM. In addition, the TGI with OVCAR-5 ovarian was above 33.3 µM; with RPMI-8226 leukemia it was 2.27 µM; in the assay with CAKI-1 renal, above 33.3 µM; with HOP-92 NSCLC it was 1.56 µM; in the assay with TK-10 renal it was above 33.3 µM; in the assay on A549 NSCLC it was above 33.3 µM. The TGI with ACHN renal is above 33.3 µM.
As to `O=C1CSC(C(N=Nc2ccc(Cl)cc2)c2nc3ccccc3[nH]2)=N1` (stereo not given), the TGI was above 100 µM in the assay with DMS 273 small cell lung; above 100 µM in the assay with MALME-3M melanoma; 45.9 µM in the assay on XF 498 CNS; above 100 µM in the assay on OVCAR-5 ovarian; above 100 µM in the assay on RPMI-8226 leukemia; above 100 µM with M14 melanoma. Further, the TGI with CAKI-1 renal, in the assay on HOP-92 NSCLC, in the assay with TK-10 renal, with A549 NSCLC and in the assay with ACHN renal was above 100 µM each time.
As for `NC(=O)SCC(=O)Nc1ccc2ncccc2c1`, the TGI is above 100 µM with MALME-3M melanoma; above 100 µM with OVCAR-5 ovarian; 76.9 µM in the assay on RPMI-8226 leukemia; above 100 µM in the assay on M14 melanoma; above 100 µM in the assay on CAKI-1 renal; above 100 µM in the assay on HOP-92 NSCLC. Further, the TGI in the assay on TK-10 renal, in the assay with A549 NSCLC and with ACHN renal was above 100 µM in each case.
